US20050034187A1, “Modified tet-inducible system for regulation of gene expression in plants” (priority 2000, published 2005)

Key:
[1] = system: wild type tet Receptor and TripleX-driven GUS gene (pAC489/pAC499 double transformants); assay: Seed germination test: induction of GUS gene in seedlings; format: in vivo, tobacco; conditions: concentration curve, FIG. 19
[2] = system: TripleX/GUS (pAC499) repressed by nTR under control of different promoters; assay: Leaf disk induction experiment, GUS assay (double transformants); format: cell-based, tobacco; conditions: Doxy 5 mg/l, leaf disks, FIG. 2
Source text: FIG. 2—Induction of GUS Gene in Leaves Expressing NLS-tet Receptor Under Control of Different Promoters. Tobacco plants. already expressing pAC499 (TripleX/GUS) were transformed with […] pCAMBIA-based Agro cassettes carrying NPTII marker gene and nTR under control of 35S, 2×35S, A. thaliana HPPD, A. thaliana AHAS, A. thaliana Actin and (OCS)3MAS promoters (pACAG076, 077, 078, 079, 109 and 084), as well as pAC489 (35S/WtTR) to yield a number of transgenic lines. This collection of tobacco plants was tested in a preliminary induction experiment performed on leaf disks: 5-10 mm leaf disks were excised from plants and put into six- or twelve-well plates with liquid MS medium and with or without Doxy 5 mg/l at 5 mg/l. GUS assays were performed with the tissues 5 days later. Each bar represents one sample; numbers above the bars represent magnitude of induction.
FIG. 3—Induction of GUS Gene In Tobacco Leaves Expressing nTR Under Control of Different Promoters. […]
Evaluation of tet inducible system in plant tissues. […] These plates were cultivated in dark on shaker at 90 rpm for 5 days (three weeks for analysis of induction of herbicide resistance) and then used in assays or evaluated visually. […] Three weeks later the induction of regeneration from these disks was evaluated.

[3] = system: tobacco line pACAG029#4; conditions: in vivo
Source text: FIG. 36—tet-Inducible Herbicide Resistance: Spray Test of F1 Seedlings and Seeds of Tobacco Line pACAG029#4. Seedlings at different stages of development (1 and 2 weeks old), produced by germination in 2.5″×2.5″ pots with Metro mix, were used for assessing tet inducible herbicide resistance in a post-emergence test. For pre-emergency application, seeds were sown on the Metro mix right before PURSUIT®, application. 15-20 seeds were placed in each pot. Pots were sprayed with doxycycline premixed with PURSUIT®, each at different rates. The test was evaluated two weeks after the spray. Each pot in the figure represents a unique experiment in terms of the combination of chemical rates and the stage of seedling development. As shown in the figure, the rate of herbicide resistance directly corresponded with increased doxycycline application rates.
Induction of herbicide resistance in plants growing in soil has been investigated. Transgenic F1 heterozygous tobacco seeds of the line pACAG029#4 (this line has been shown elsewhere herein to provide the best repression/induction in tissue culture tests) ere used for the spray test. Seedlings at different stages of development (1 and 2 weeks old) produced by germination of seeds in 2.5″×2.5″ pots with Metro mix were used for post-emergence test. For pre-emergency application, seeds were sown on the Metro mix right before the application of herbicide. […]

SMILES: C[C@H]1c2cccc(O)c2C(=O)C2=C(O)[C@]3(O)C(=O)C(C(N)=O)=C(O)[C@@H](N(C)C)[C@@H]3[C@@H](O)[C@@H]21 [doxycycline]
- threshold concentration at which noticeable induction occurred [1]: 0.1 mg/L
- magnitude of induction of GUS ([2]; nTR driven by 35S promoter, 5 days): 26 to 76 fold
- maximum induction of GUS ([2]; nTR driven by HPPD and AHAS promoters): 1.4 fold
- plant injury in spray test [3]: caused some injury and stunted growth of plants
